Values of other authors in paper PMC10299363 (International Journal of Molecular Sciences, 2023).

What was measured:
[1] = system: GAL2R
[2] = system: insulin secretion
[3] = system: chemically induced PDACs; conditions: subcutaneous injection, rats
Description: The galaninergic system is also involved in tumorigenesis, the invasion/migration of tumor cells and angiogenesis, and has been correlated with the tumor stage, proliferation, metastasis, and recurrence rate. […] The inactivation of GAL2R by promoter hypermethylation decreased disease-free survival. GAL2R strongly exerted anti-tumor activity via two important mechanisms: (1) tumor cell cycle arrest mediated via the extracellular-regulated protein kinase-1/2 (ERK1/2)-dependent effects on the cyc ...

[4] = system: head and neck cancer; conditions: via activation of PBMCs
[5] = system: GAL3R

galanin: 30 amino acid peptide that stimulates three subtype receptors (GAL1–3R)
binding to GAL2R [1]: binds | effect on insulin secretion [2]: strong inhibitory effects toward insulin secretion | number of chemically induced PDACs [3]: reduced the number of chemically induced PDACs | effect in head and neck cancer [4]: pro-tumor effects | binding to GAL3R [5]: binds

linear angiotensin: linear angiotensin (ref 33: radioiodinated angiotensin II) (DRVYIHPF; Angiotensin-2; UniProt P01019 25-32, looked up)
breakdown in vivo: broken down within a minute
